The test system of assay [1] is NCI-H358 cells (Kras G12C mutation). The experiment in a line: Cell proliferation inhibition experiment, 3D model, CellTiter-Glo (NCI-H358). Type of assay: cell-based, human. The settings on record: NCI-H358, 3D sphere plate, 5 days, 2% FBS. The protocol: (§1) NCI-H358 was a human non-small cell lung cancer cell line with Kras G12C mutation, cultured in 10% FBS RPMI-1640 medium; A549 was a human lung adenocarcinoma cell line with Kras G12S mutation, cultured in 10% FBS F-12K medium. The cells in the logarithmic growth phase was taken, digested with trypsin EDTA, collected and counted, and H358 was adjusted to 1.8E4 cells/ml using 2% FBS RPMI-1640 medium, and A549 was adjusted to 8.9E3 cells/ml using 2% FBS F-12K medium; 800 (45 μl) H358 or 400 (45 μl) A549 cells were seeded in a 384-well sphere plate respectively, cultured overnight to establish a 3D cell model. DMSO was used to prepare 1000× compound 3.16-fold gradient concentration stock solution, and 2% FBS medium was used to dilute 100-fold to 10× compound stock solution. On the second day after cell seeding, 5 μl 10× compound stock solution was added to each cell culture well, the final concentration was 1×, and DMSO content was 0.1%. DMSO was used as the experimental control (control) and 2% FBS medium as the blank control (blank). After the compound and cells were added and cultured for 5 days, 25 μl CellTiter-Glo working solution was added to each well, mixed at 400 rpm and incubated for 30 minutes. After 30 minutes at room temperature, 40 μl of the mixture was transferred to a 384-well plate with a non-transparent white bottom, the luminescence chemiluminescence value was read, and the cells proliferation inhibition rate IR (%)=(RLU control-RLU compound)/(RLU control-RLU blank)×100% was calculated, Prism 6 four-parameter method was used to fit the compound's gradient dilution concentration and the corresponding cell proliferation inhibition rate, and the IC50 value was calculate.
In general terms: Cellular ATP, detected with luciferase, serves as a proxy for viable cell number.

Assay [2] concerns A549 cells (Kras G12S mutation). The experiment in a line: Cell proliferation inhibition experiment, 3D model, CellTiter-Glo (A549). Type of assay: cell-based, human. The following applies: A549, 3D sphere plate, 5 days, 2% FBS. The procedure: as §1

Consider `C=CC(=O)N1CCN2c3nc(=O)n(-c4c(C)ccnc4C(C)C)c4cc(-c5c(C)ccc6[nH]ncc56)cc(c34)OC[C@@H]2C1` (atropisomer, axis not shown) [Compound Z19-1], for which the IC50 in assay [1] was determined as 321 nM; in assay [2] it was 6990 nM.
The like results for `C=CC(=O)N1CCN2c3nc(=O)n(-c4c(C)ccnc4C(C)C)c4nc(-c5c(O)cccc5F)cc(c34)OC[C@H]2C1` (atropisomer, axis not shown) [Compound Z25-2] were, in that order, 281 nM and more than 10000 nM.
`C=CC(=O)N1CCN2c3nc(=O)n(-c4c(C)ccnc4C(C)C)c4nc(-c5ccc(F)cc5F)c(Cl)c(c34)OC[C@@H]2C1` (atropisomer, axis not shown) [Compound Z49-2]: the results for the concentration for half-maximal inhibition (IC50) in assay [1] and in assay [2] were 113 nM and more than 10000 nM, respectively.
The like results for `C=CC(=O)N1CCN2c3nc(=O)n(-c4c(C)ccnc4C(C)C)c4nc(-c5cccc(C(F)(F)F)c5F)c(Cl)c(c34)OC[C@@H]2C1` (atropisomer, axis not shown) [Compound Z57-1] were, in that order, 111 nM and more than 10000 nM.
Regarding `C=CC(=O)N1CCN2c3nc(=O)n(-c4c(C)ccnc4C(C)C)c4nc(-c5c(O)cccc5F)c(Cl)c(c34)OC[C@H]2C1` (single isomer, unassigned) [Compound Z23-2], the figures for the IC50 in assay [1] and in assay [2] were 21 nM and more than 10000 nM, respectively.
Take `C=CC(=O)N1CCN2c3nc(=O)n(-c4c(C)ccnc4C(C)C)c4nc(-c5c(O)cccc5F)cc(c34)OC[C@H]2C1` (single isomer, unassigned) [Compound Z25-1]: the IC50 in assay [1] is 46 nM; in assay [2], more than 10000 nM.
The like results for `C=CC(=O)N1CCN2c3nc(=O)n(-c4c(C)ccnc4C(C)C)c4cc(-c5c(O)cccc5F)c(Cl)c(c34)OC[C@H]2C1` (single isomer, unassigned) [Compound Z29-3] were, in that order, 165 nM and more than 10000 nM.
`C=CC(=O)N1CCN2c3nc(=O)n(-c4c(C)ncnc4C(C)C)c4cc(-c5c(C)ccc6[nH]ncc56)c(Cl)c(c34)OC[C@@H]2C1` (single isomer, unassigned) [Compound Z45-1]: the IC50 in assay [1] was 3 nM; in assay [2] (Homo sapiens, A549, 120 h) it was more than 10000 nM.
For `C=CC(=O)N1CCN2c3nc(=O)n(-c4c(C)ncnc4C(C)C)c4cc(-c5c(C)ccc6[nH]ncc56)c(Cl)c(c34)OC[C@@H]2C1` (single isomer, unassigned) [Compound Z45-4], the IC50 is 65 nM in assay [1] and more than 10000 nM in assay [2].
Regarding `C=CC(=O)N1CCN2c3nc(=O)n(-c4c(C)ccnc4C(C)C)c4nc(-c5ccccc5F)c(Cl)c(c34)OC[C@@H]2C1` (single isomer, unassigned) [Compound Z46-1], the half-inhibitory concentration (IC50) in assay [1] turned out to be 89 nM; in assay [2] (Homo sapiens, A549, 120 h) it was 8360 nM.
On to `[2H]C([2H])([2H])Oc1cccc(F)c1-c1nc2c3c(nc(=O)n2-c2c(C)ccnc2C(C)C)N2CCN(C(=O)C=C)C[C@@H]2COc3c1F` (single isomer, unassigned) [Compound Z100-2], for which the IC50 in assay [1] was 31 nM; in assay [2] it was more than 10000 nM.
The like results for `C=CC(=O)N1CCN2c3nc(=O)n(-c4c(C#N)cnn4C(C)(C)C)c4nc(-c5ccccc5F)c(Cl)c(c34)OC[C@H]2C1` (single isomer, unassigned) [Compound Z109-2] were, in that order, 106 nM and 9780 nM.
For `C=CC(=O)N1CCN2c3nc(=O)n(-c4ccccc4C(C)C)c4cc(-c5c(C)ccc6[nH]ncc56)c(Cl)c(c34)OCC2C1` (stereo not drawn) [Compound Z1], the IC50 amounted to 2 nM in assay [1] (Homo sapiens, NCI-H358, 120 h) and 7450 nM in assay [2] (Homo sapiens, A549, 120 h).
In the case of `C=CC(=O)N1CCN2c3nc(=O)n(-c4c(C)ccnc4C(C)C)c4cc(-c5c(O)cccc5F)cc(c34)OC[C@@H]2C1` [Compound Z15, (S)-2-acryloyl-10-(2-fluoro-6-hydroxyphenyl)-8-(2-isopropyl-4-methylpyridin-3-yl)-1,2,3,4,13,13a-hexahydropyrazino[2′,1′:3,4][1,4]oxazepine[5,6,7-de]quinazolin-7 (8H)-one], the IC50 in assay [1] is 36 nM; in assay [2], more than 10000 nM.
With `C=CC(=O)N1CCN2c3nc(=O)n(-c4c(C)ccnc4C(C)C)c4cc(-c5c(C)ccc6[nH]ncc56)cc(c34)OC[C@H]2C1` [Compound Z18, (R)-2-acryloyl-8-(2-isopropyl-4-methylpyridin-3-yl)-10-(5-methyl-1H-indazol-4-yl)-1,2,3,4,13,13a-hexahydropyrazino[2′,1′:3,4][1,4]oxazepine[5,6,7-de]quinazolin-7 (8H)-one], the IC50 in assay [1] (Homo sapiens, NCI-H358, 120 h) was found to be 107 nM; in assay [2] (Homo sapiens, A549, 120 h) it was 12400 nM.
Take `C=CC(=O)N1CCN2c3nc(=O)n(-c4c(C)ccnc4C(C)C)c4cc(-c5c(C)ccc6[nH]ncc56)cc(c34)OC[C@@H]2C1` [Compound Z19, (S)-2-acryloyl-8-(2-isopropyl-4-methylpyridin-3-yl)-10-(5-methyl-1H-indazol-4-yl)-1,2,3,4,13,13a-hexahydropyrazino[2′,1′:3,4][1,4]oxazepine[5,6,7-de]quinazolin-7 (8H)-one]: the IC50 in assay [1] is 68 nM; in assay [2] it was 46400 nM.
As for `C=CC(=O)N1CCN2c3nc(=O)n(C4CC4)c4cc(-c5c(C)ccc6[nH]ncc56)cc(c34)OCCC2C1` (stereo not drawn) [Compound Z21, 2-acryloyl-8-cyclopropyl-10-(5-methyl-1H-indazol-4-yl)-1,3,4,13,14,14a-hexa hydro-2H-pyrazino[1′,2′:5,6][1,5]oxazolidine[4,3,2-de]quinazolin-7 (8H)-one], the IC50 in assay [1] (Homo sapiens, NCI-H358, 120 h) was 283 nM; in assay [2] (Homo sapiens, A549, 120 h), more than 10000 nM.
The like results for `C=CC(=O)N1CCN2c3nc(=O)n(-c4c(C)ccnc4C(C)C)c4cc(-c5c(C)ccc6[nH]ncc56)cc(c34)OCCC2C1` (stereo not drawn) [Compound Z22] were, in that order, 118 nM and more than 10000 nM.
For `C=CC(=O)N1CCN2c3nc(=O)n(-c4c(C)ccnc4C(C)C)c4nc(-c5c(O)cccc5F)c(Cl)c(c34)OC[C@H]2C1` [Compound Z23, (5aR)-7-acryloyl-3-chloro-2-(2-fluoro-6-hydroxyphenyl)-12-(2-isopropyl-4-methylpyridin-3-yl)-5,5a,6,7,8,9-hexahydro-4-oxo-1,7,9a,10,12-pentazabenzo[4,5] cyclohepta[1,2,3-de]naphthalen-11 (12H)-one] the same measures were 2 nM and more than 10000 nM.
With `C=CC(=O)N1CCN2c3nc(=O)n(-c4c(C)ccnc4C(C)C)c4nc(-c5c(O)cccc5F)cc(c34)OC[C@H]2C1` [Compound Z25, (R)-7-acryloyl-2-(2-fluoro-6-hydroxyphenyl)-12-(2-isopropyl-4-methylpyridin-3-yl)-5,5a,6,7,8,9-hexahydro-4-oxo-1,7,9a,10,12-pentazabenzo[4,5]cyclohepta[1,2,3-de]naphthalen-11 (12H)-one], the IC50 in assay [1] was found to be 94 nM; in assay [2], 24200 nM.
In the case of `C=CC(=O)N1CCN2c3nc(=O)n(C4CC4)c4cc(-c5c(O)cccc5F)cc(c34)OCCC2C1` (stereo not drawn) [Compound Z28], the IC50 in assay [1] (Homo sapiens, NCI-H358, 120 h) is 184 nM; in assay [2] (Homo sapiens, A549, 120 h) it was more than 10000 nM.
`C=CC(=O)N1CCN2c3nc(=O)n(CC(C)C)c4cc(-c5c(O)cccc5F)c(Cl)c(c34)OC[C@@H]2C1` [Compound Z32]: the IC50 in assay [1] (Homo sapiens, NCI-H358, 120 h) turned out to be 308 nM; in assay [2] (Homo sapiens, A549, 120 h), 23500 nM.
The like results for `C=CC(=O)N1CCN2c3nc(=O)n(-c4c(C)ccnc4C(C)C)c4cc(-c5ncccc5F)c(Cl)c(c34)OC[C@@H]2C1` [Compound Z35] were, in that order, 164 nM and more than 10000 nM.
For `C=CC(=O)N1CCN2c3nc(=O)n(CC4CC4)c4cc(-c5c(O)cccc5F)c(Cl)c(c34)OC[C@@H]2C1` [Compound Z37-2] the same measures were 276 nM and 29500 nM.
For `C=CC(=O)N1CCN2c3nc(=O)n(-c4c(C)ccnc4C(C)C)c4nc(-c5cccc(F)c5)c(Cl)c(c34)OC[C@@H]2C1` [Compound Z48] the same measures were 22 nM and more than 10000 nM.
In the case of `C=CC(=O)N1CCN2c3nc(=O)n(-c4c(C)ccnc4C(C)C)c4nc(-c5ccc(F)cc5)c(Cl)c(c34)OC[C@@H]2C1` [Compound Z50], the IC50 in assay [1] (Homo sapiens, NCI-H358, 120 h) is 50 nM; in assay [2] (Homo sapiens, A549, 120 h) it was more than 10000 nM.
The like results for `C=CC(=O)N1CCN2c3nc(=O)n(-c4c(C)ccnc4C(C)C)c4nc(-c5cc(F)cc(F)c5O)c(Cl)c(c34)OC[C@@H]2C1` [Compound Z54] were, in that order, 66 nM and more than 10000 nM.
Regarding `C=CC(=O)N1CCN2c3nc(=O)n(-c4c(C)ccnc4C(C)C)c4nc(-c5c(F)cc(F)cc5F)c(Cl)c(c34)OC[C@@H]2C1` [Compound Z56], the IC50 is 11 nM in assay [1] (Homo sapiens, NCI-H358, 120 h) and more than 10000 nM in assay [2] (Homo sapiens, A549, 120 h).
For `C=CC(=O)N1CCN2c3nc(=O)n(-c4c(C)ccnc4C(C)C)c4nc(-c5ccccc5C(C)C)c(Cl)c(c34)OC[C@@H]2C1` [Compound Z62] the same measures were 6 nM and more than 10000 nM.
In the case of `C=CC(=O)N1CCN2c3nc(=O)n(-c4c(C)ccnc4C(C)C)c4nc(-c5ccncc5F)c(Cl)c(c34)OC[C@@H]2C1` [Compound Z69], the IC50 is 95 nM in assay [1] (Homo sapiens, NCI-H358, 120 h) and more than 10000 nM in assay [2] (Homo sapiens, A549, 120 h).

As a reminder, the IC50 is the concentration needed to halve the response being measured. The low end stands for inhibition by little substance, the high end for a need for much substance.

Source of the values: patent publication US20220251109A1, “OXAAZAQUINAZOLINE-7(8H)-KETONE COMPOUND, PREPARATION METHOD THEREFOR AND PHARMACEUTICAL APPLICATION THEREOF” (GENFLEET THERAPEUTICS (SHANGHAI) INC., priority 2019, published 2022).
